{
  "source": "ChEMBL document CHEMBL1201862",
  "about": "“PubChem BioAssay data set” (2004)",
  "key": {"[1]": {"molecular_target": "Beta-2 adrenergic receptor (Homo sapiens, UniProt P07550)", "sequence (P07550 whole entry)": "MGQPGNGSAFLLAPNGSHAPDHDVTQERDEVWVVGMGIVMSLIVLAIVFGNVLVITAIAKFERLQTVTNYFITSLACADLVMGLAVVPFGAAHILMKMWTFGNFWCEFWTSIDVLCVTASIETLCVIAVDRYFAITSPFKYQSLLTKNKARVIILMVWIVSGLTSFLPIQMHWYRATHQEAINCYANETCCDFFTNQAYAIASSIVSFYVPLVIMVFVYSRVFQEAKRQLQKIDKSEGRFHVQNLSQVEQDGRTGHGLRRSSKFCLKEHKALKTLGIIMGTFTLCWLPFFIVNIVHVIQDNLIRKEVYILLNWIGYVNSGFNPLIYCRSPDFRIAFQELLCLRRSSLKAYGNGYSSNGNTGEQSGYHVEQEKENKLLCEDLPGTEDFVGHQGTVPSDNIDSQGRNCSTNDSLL", "test": "ADRB2 activation measured by internalization – cell-based, FAP fluorogen, flow cytometry, cherry pick 1, dose response (AID 588763)", "assay_type": "functional"}, "Mu-type opioid receptor": {"molecular_target": "Mu-type opioid receptor (Homo sapiens, UniProt P35372)", "sequence (P35372 whole entry)": "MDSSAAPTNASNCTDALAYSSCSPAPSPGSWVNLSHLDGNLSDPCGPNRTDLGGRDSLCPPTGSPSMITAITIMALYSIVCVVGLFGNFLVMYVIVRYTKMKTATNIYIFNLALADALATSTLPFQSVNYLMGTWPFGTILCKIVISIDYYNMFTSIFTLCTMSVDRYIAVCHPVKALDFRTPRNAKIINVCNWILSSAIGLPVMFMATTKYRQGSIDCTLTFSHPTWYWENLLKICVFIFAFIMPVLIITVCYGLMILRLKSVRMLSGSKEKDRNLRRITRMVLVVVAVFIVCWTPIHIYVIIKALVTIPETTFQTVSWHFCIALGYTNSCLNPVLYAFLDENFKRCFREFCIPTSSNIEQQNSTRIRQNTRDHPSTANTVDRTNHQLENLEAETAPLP", "assay_type": "functional, cell-based"}, "[2]": {"molecular_target": "5-hydroxytryptamine receptor 2A (Mus musculus, UniProt P35363)", "sequence (P35363 whole entry)": "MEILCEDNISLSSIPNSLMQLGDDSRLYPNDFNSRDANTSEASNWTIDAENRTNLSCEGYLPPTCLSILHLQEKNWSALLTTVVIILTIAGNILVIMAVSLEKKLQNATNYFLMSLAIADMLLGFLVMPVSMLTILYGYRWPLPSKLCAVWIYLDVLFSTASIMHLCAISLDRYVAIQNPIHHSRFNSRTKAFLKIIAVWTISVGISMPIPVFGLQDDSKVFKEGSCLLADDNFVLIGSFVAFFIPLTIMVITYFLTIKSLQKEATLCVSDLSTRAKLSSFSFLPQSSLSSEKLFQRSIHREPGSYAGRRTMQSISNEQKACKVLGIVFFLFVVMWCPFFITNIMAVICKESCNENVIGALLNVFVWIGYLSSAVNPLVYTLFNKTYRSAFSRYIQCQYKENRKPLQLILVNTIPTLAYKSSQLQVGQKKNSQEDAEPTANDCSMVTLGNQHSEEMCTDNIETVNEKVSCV", "assay_type": "functional, cell-based"}, "[3]": {"molecular_target": "DNA dC->dU-editing enzyme APOBEC-3A (Homo sapiens, UniProt P31941)", "sequence (P31941 whole entry)": "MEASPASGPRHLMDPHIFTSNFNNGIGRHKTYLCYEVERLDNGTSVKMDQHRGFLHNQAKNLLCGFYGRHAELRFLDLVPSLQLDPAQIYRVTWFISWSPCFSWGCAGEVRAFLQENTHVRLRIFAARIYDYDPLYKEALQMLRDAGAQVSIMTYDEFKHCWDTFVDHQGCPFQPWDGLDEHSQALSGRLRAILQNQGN", "test": "A3A deaminase inhibition for selectivity – biochemical, dose response (AID 504722)", "assay_type": "functional"}, "[4]": {"molecular_target": "DNA dC->dU-editing enzyme APOBEC-3G (Homo sapiens, UniProt Q9HC16)", "sequence (Q9HC16 whole entry)": "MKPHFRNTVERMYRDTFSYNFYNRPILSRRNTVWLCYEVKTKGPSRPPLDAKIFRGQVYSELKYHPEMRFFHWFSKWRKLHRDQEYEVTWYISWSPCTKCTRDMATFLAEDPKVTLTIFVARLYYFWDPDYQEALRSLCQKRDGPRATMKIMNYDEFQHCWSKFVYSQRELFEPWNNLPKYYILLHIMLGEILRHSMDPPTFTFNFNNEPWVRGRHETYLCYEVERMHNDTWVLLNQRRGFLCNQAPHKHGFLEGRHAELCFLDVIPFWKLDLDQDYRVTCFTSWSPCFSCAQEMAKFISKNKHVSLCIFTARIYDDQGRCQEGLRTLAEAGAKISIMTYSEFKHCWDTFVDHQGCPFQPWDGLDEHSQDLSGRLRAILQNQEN", "test": "Dose Response confirmation of small molecule APOBEC3G DNA Deaminase Inhibitors via a fluorescence-based single-stranded DNA deaminase assay. [Related pubchem assays (depositor defined):AID493012, AID493028]", "assay_type": "functional"}, "[5]": {"molecular_target": "Beta-adrenergic receptor kinase 1 (Homo sapiens, UniProt P25098)", "test": "aptamer displacement from bead-bound GRK2 – biochemical, cherry pick 1, bead flow cytometry, dose response (AID 504500)"}, "[6]": {"molecular_target": "T1, Carboxy-terminal domain RNA polymerase II polypeptide A small phosphatase 1 (Homo sapiens, UniProt Q9GZU7)", "T1 sequence (Q9GZU7 whole entry)": "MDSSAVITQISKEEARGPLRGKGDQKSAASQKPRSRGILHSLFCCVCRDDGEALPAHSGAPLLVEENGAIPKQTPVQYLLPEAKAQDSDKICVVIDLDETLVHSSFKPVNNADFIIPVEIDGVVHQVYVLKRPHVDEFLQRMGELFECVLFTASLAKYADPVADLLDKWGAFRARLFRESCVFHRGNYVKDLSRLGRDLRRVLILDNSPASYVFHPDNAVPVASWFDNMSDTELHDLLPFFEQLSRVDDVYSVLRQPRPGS", "test": "CTDSP1 inhibitors, concentration-response, biochemical, absorbance readout, ultra-high-throughput screen actives (AID 540297)", "assay_type": "functional"}, "[7]": {"molecular_target": "T2, Small ubiquitin-related modifier 1 (Homo sapiens, UniProt P63165)", "T2 sequence (P63165 whole entry)": "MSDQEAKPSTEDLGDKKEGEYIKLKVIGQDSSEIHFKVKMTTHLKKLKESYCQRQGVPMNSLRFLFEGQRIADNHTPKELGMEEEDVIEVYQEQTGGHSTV", "test": "SUMO1 protein interaction blockers, potency – biochemical, fluorescence polarization, uHTS hits, dose response (AID 624382)", "assay_type": "functional", "conditions": "read-out: IC50_Mean"}, "[8]": {"molecular_target": "T2, Small ubiquitin-related modifier 1", "test": "SUMO1 protein-protein binding blockers, potency – biochemical, FRET, dose response (AID 624383)", "assay_type": "functional", "conditions": "read-out: IC50_Mean"}, "[9]": {"test": "viability loss in THP-1 monocytes – THP-1 cells, cytotoxicity control for Vif-APOBEC3G degradation inhibitor project, dose response (AID 1117359)", "assay_type": "functional", "conditions": "THP-1"}, "[10]": {"test": "NIH-3T3 fibroblast cytotoxicity, dose response, cytotoxicity control, cell-based, fluorescence, Alamar Blue, secondary assay (AID 2327);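 note: NIH-3T3 mouse fibroblasts cultured with fluconazole at 8 µg/mL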", "assay_type": "functional"}, "[11]": {"test": "luciferase reporter signal suppression in cells – H4 neuroglioma cells, luminescence, dose response (AID 1990)", "assay_type": "functional, cell-based"}, "BJ [12]": {"test_system": "BJ", "test": "BJ-TERT fibroblast viability loss – cell-based, RAS-independent, luminescence, dose response (AID 1933)", "assay_type": "functional", "conditions": "Homo sapiens"}, "[13]": {"test": "Luminescence Cell-Based Dose Response HTS to Identify Inhibitors of 5'UTR Stem-Loop Driven Prion Protein mRNA Translation in H4 Neuroglioblastoma Cells. [Related pubchem assays: 1827 (Project Summary), 1813 (Primary HTS)]", "assay_type": "functional"}, "[14]": {"molecular_target": "T3, Heat shock factor protein 1 (Mus musculus, UniProt P38532)", "T3 sequence (P38532 whole entry)": "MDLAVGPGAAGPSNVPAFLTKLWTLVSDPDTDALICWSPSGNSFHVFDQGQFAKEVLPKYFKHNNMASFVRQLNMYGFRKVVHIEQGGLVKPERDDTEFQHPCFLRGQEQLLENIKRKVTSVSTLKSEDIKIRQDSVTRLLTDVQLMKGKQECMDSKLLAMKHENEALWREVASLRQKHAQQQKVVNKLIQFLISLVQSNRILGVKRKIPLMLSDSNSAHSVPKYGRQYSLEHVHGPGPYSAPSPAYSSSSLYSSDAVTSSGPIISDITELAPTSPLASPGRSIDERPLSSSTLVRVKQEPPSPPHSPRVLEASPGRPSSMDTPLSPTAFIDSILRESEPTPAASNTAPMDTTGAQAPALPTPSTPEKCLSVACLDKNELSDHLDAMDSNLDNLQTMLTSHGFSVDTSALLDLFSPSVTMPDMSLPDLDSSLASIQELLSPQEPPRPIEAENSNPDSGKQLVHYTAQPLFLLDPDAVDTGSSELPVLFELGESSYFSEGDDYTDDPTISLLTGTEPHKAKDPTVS", "test": "decrease of HSF1-responsive luciferase luminescence – cell-based, NIH3T3, dose retest, confirmation (AID 2382);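 note: NIH3T3 fibroblasts with HSF1-driven luciferase reporter stressed by proteasome inhibitor MG132; luminescence from HSF1-driven luciferase expression after 8 hours of MG132 stress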", "assay_type": "functional"}, "[15]": {"test": "alpha-synuclein stem-loop luciferase translation blockers – H4 neuroglioma cells, luminescence, confirmation (AID 1988)", "assay_type": "functional, cell-based"}, "BJ [16]": {"test_system": "BJ", "test": "cells", "assay_type": "functional, cell-based", "conditions": "Homo sapiens"}, "[17]": {"test": "fluconazole-exposed Candida albicans growth modulators – fluorescence, retest, confirmation (AID 2467)", "assay_type": "functional, cell-based"}, "[18]": {"test": "Luminescence-based dose response cell-based high throughput screening assay for cytotoxic compounds using the IEC-6 intestinal epithelial cell line. [Related pubchem assays: 1858 (Summary AID.), 1825 (Counterscreen.), 1907 (Confirmation screen.)]", "assay_type": "functional"}, "BJ [19]": {"test_system": "BJ", "test": "BJ-TERT-LT-ST fibroblast viability loss – cell-based, RAS-independent, luminescence, dose response (AID 1935);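 note: BJ fibroblasts immortalized with TERT plus LT and ST oncogenes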", "assay_type": "functional", "conditions": "Homo sapiens"}, "[20]": {"test": "DRD fibroblast viability loss – cell-based, non-viral oncogenic, luminescence, dose response (AID 1934)", "assay_type": "functional", "conditions": "Homo sapiens"}, "[21]": {"test": "HEK-293T viability loss after treatment – luminescence, T-cell screen hits, cytotoxicity control for TCR NF-kB inhibitor project, dose response (AID 489026);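 note: cells exposed to compound about 14 hours before the viability readout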", "assay_type": "functional, cell-based"}, "[22]": {"molecular_target": "Heat shock protein HSP 90-alpha (Homo sapiens, UniProt P07900)", "assay_type": "functional, organism-based"}, "BJ [23]": {"test_system": "BJ", "test": "growth inhibition of engineered Ras-driven BJ cells – cell-based, alamar blue fluorescence, cherrypicked samples, dose response (AID 2631)", "assay_type": "functional", "conditions": "Homo sapiens"}, "[24]": {"molecular_target": "T4, V-type proton ATPase subunit c' (Saccharomyces cerevisiae S288c, UniProt P32842)", "T4 sequence (P32842 whole entry)": "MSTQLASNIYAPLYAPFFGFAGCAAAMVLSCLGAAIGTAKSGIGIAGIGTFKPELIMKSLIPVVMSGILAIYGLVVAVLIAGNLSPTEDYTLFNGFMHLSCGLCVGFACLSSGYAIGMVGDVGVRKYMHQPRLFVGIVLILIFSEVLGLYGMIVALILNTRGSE", "test": "Dose Response of Small Molecules that Regulate V-ATPase Proton Transport in Yeast using pHLuorin, Cherry Pick 1. [Related pubchem assays (depositor defined):AID504622]", "assay_type": "functional"}, "[25]": {"molecular_target": "T4, V-type proton ATPase subunit c'", "test": "Dose Response of Small Molecules that Regulate V-ATPase Proton Transport in Yeast using pHLuorin, Cherry Pick 2.", "assay_type": "functional", "conditions": "read-out: EC50_MICROM"}, "Fatty acid synthase [26]": {"molecular_target": "T5, Fatty acid synthase (Homo sapiens, UniProt P49327)", "T5 sequence (P49327 whole entry)": "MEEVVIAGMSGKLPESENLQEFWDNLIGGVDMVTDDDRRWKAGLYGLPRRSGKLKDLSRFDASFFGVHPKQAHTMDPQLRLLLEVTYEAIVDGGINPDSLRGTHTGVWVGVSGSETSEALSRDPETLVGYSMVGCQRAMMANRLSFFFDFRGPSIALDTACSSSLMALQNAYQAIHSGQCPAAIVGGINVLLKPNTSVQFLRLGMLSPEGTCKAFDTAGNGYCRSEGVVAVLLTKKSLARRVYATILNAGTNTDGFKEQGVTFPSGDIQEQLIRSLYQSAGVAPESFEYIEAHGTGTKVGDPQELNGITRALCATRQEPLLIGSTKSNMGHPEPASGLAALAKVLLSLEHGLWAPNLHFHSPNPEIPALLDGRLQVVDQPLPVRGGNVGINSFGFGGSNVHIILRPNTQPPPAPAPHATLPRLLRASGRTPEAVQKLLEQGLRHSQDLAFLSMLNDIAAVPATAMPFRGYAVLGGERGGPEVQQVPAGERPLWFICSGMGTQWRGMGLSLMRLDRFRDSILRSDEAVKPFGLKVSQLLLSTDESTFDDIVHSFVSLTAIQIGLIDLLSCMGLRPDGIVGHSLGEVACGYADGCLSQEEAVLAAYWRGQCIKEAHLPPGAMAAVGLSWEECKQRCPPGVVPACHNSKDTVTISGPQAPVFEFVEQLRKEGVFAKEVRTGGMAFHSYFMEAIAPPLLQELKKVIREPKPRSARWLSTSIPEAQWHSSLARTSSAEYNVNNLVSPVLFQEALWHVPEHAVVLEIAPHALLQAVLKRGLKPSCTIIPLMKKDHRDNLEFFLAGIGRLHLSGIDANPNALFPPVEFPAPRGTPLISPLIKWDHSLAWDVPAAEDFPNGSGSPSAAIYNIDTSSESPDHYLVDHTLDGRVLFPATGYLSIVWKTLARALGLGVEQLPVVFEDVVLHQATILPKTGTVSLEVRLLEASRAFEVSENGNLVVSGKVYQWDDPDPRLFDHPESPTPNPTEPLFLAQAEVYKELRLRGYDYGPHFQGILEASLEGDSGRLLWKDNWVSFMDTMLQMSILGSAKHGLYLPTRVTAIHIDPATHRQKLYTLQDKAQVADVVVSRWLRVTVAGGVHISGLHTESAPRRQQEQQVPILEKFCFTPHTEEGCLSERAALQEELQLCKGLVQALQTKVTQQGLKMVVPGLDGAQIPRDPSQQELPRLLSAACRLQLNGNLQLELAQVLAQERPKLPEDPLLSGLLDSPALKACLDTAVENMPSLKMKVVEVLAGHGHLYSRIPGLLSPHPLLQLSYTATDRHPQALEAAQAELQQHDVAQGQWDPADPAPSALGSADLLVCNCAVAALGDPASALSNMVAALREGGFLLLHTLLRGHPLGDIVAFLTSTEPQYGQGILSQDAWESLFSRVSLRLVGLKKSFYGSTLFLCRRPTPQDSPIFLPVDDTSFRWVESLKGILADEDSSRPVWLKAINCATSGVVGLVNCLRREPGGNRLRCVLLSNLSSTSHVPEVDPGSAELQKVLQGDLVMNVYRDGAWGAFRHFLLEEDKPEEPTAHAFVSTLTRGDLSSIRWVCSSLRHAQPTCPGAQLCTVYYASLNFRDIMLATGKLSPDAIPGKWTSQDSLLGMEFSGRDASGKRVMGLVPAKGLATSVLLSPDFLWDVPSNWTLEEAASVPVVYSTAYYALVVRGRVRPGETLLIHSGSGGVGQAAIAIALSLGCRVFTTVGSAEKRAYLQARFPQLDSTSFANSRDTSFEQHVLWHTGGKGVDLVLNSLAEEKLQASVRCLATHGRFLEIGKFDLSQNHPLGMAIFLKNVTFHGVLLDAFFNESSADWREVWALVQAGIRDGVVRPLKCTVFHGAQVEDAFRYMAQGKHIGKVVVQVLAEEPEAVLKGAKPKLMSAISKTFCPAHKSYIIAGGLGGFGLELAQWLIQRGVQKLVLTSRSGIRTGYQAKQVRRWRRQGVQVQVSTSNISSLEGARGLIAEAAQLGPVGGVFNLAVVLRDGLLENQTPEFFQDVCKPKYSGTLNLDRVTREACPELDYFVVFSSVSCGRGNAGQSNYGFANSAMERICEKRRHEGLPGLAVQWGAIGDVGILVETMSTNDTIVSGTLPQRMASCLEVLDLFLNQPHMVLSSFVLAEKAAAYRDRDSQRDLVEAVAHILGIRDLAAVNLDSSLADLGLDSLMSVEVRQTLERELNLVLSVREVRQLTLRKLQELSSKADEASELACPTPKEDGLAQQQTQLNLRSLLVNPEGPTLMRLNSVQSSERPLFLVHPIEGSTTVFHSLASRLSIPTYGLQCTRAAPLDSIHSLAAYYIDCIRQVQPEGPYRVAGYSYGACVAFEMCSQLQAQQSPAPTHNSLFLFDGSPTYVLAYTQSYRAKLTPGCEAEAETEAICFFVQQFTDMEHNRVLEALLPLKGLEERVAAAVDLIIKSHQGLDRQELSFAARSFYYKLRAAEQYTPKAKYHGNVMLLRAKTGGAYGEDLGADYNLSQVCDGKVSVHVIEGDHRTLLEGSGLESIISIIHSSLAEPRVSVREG", "test": "inhibition of human FAS-TE enzyme activity – biochemical, endpoint fluorescence intensity, uHTS hits, dose response (AID 624327);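 note: fluorescence from hydrolysis of an O-methyl fluorescein acyl ester substrate by the enzyme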", "assay_type": "functional"}, "[27]": {"molecular_target": "Mitochondrial peptide methionine sulfoxide reductase (Bos taurus, UniProt P54149)", "sequence (P54149 whole entry)": "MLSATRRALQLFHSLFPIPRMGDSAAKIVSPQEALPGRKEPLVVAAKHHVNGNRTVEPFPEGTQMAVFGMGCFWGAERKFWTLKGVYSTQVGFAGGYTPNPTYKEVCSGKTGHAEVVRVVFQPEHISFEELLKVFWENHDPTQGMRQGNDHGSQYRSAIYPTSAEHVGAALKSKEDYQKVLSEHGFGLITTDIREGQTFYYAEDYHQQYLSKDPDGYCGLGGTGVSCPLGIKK", "assay_type": "functional"}, "Fatty acid synthase [28]": {"molecular_target": "T5, Fatty acid synthase", "test": "inhibition of human FAS-TE enzyme activity – biochemical, kinetic fluorescence intensity, dose response (AID 624326);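 note: rate of fluorescence rise from hydrolysis of a fluorogenic O-methyl fluorescein ester substrate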", "assay_type": "functional"}, "[29]": {"test": "blockers of HIV-1 envelope-mediated cell-cell fusion – cherry-pick, dose response (AID 652057)", "assay_type": "functional, cell-based"}, "[30]": {"test": "viability loss in CEM21 cells – cell-based, CellTiter-Glo luminescence, cherry-picked, cytotoxicity control for viral fusion inhibitor project, dose response (AID 652042)", "assay_type": "functional"}, "[31]": {"test": "blockers of HIV-1 ZM109 envelope-driven cell-cell fusion – HeLa effector, CEM target cells, luciferase, cherry-pick, dose response (AID 652058)", "assay_type": "functional, cell-based"}, "[32]": {"test": "off-target signal loss in HeLa-CEM21 co-culture – HeLa F-luc CTL cells, cherry-picked, counter-screen for HIV-1 Env fusion inhibitor project, dose response (AID 652040);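 note: potency for signal decrease marking cytotoxic or nonspecific inhibition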", "assay_type": "functional, cell-based"}, "[33]": {"test": "HIV-1 AD8 envelope cell-cell fusion blockers – cherry-pick, dose response (AID 652062);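 note: potency is for inhibitors of fusion seen as a drop in luminescence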", "assay_type": "functional, cell-based"}},
  "note": "Calls of active or inactive are those of the source.",
  "data": [
    {"compound": "CC(=O)N1CCc2cc(C(=O)CN3CCN(c4cccc(Cl)c4)CC3)ccc21", "values": [
      {"measurement": "EC50", "setting": "[1]", "result": "0.0472 µM (active)"},
      {"measurement": "EC50", "setting": "Mu-type opioid receptor", "result": "92.5 µM (inactive)"},
      {"measurement": "EC50", "setting": "[2]", "result": "0.133 µM (active)"}
    ]},
    {"compound": "C=C(C)C(=O)Nc1cccc(C2=NOC3(C2)C[C@@H](C(N)=O)N(C(=O)CC(c2ccccc2)c2ccccc2)C3)c1", "note": "(some centres undefined)", "values": [
      {"measurement": "IC50", "setting": "[3]", "result": "> 100 µM (inactive)"},
      {"measurement": "IC50", "setting": "[4]", "result": "15.3 µM (active)"},
      {"measurement": "EC50", "setting": "[5]", "result": "1.94 µM (active)"},
      {"measurement": "IC50", "setting": "[6]", "result": "6.38 µM (active)"},
      {"measurement": "IC50", "setting": "[7]", "result": "> 66.6 µM (inactive)"},
      {"measurement": "IC50", "setting": "[8]", "result": "5.4 µM (active)"},
      {"measurement": "CC50", "setting": "[9]", "result": "> 40 µM (active)"}
    ]},
    {"compound": "CCOC(=O)NN=C1c2ccccc2-c2nc3nonc3nc21", "values": [
      {"measurement": "EC50", "setting": "[10]", "result": "1.71 µM (active)"},
      {"measurement": "EC50", "setting": "[11]", "result": "0.234 µM (active)"},
      {"measurement": "EC50", "setting": "BJ [12]", "result": "2.33 µM (active)"},
      {"measurement": "EC50", "setting": "[13]", "result": "0.593 µM (active)"},
      {"measurement": "EC50", "setting": "[14]", "result": "3.64 µM (active)"},
      {"measurement": "EC50", "setting": "[15]", "result": "0.131 µM (active)"},
      {"measurement": "EC50", "setting": "BJ [16]", "result": "0.587 µM (inconclusive)"},
      {"measurement": "EC50", "setting": "[17]", "result": "0.083 µM (active)"},
      {"measurement": "IC50", "setting": "[18]", "result": "0.223 µM (active)"},
      {"measurement": "EC50", "setting": "BJ [19]", "result": "1.35 µM (inconclusive)"},
      {"measurement": "EC50", "setting": "[20]", "result": "2.39 µM (active)"},
      {"measurement": "IC50", "setting": "[21]", "result": "3.2 µM (active)"},
      {"measurement": "AC50", "setting": "[22]", "result": "1.26 µM (active)"},
      {"measurement": "EC50", "setting": "BJ [23]", "result": "1.86 µM (active)"},
      {"measurement": "EC50", "setting": "[24]", "result": "27.1 µM (active)"},
      {"measurement": "EC50", "setting": "[25]", "result": "2.37 µM (active)"},
      {"measurement": "IC50", "setting": "Fatty acid synthase [26]", "result": "1.67 µM (active)"},
      {"measurement": "IC50", "setting": "[27]", "result": "155 µM (inactive)"},
      {"measurement": "IC50", "setting": "Fatty acid synthase [28]", "result": "0.859 µM (active)"},
      {"measurement": "AC50", "setting": "[29]", "result": "4.41 µM (active)"},
      {"measurement": "AC50", "setting": "[30]", "result": "1.7 µM (active)"},
      {"measurement": "AC50", "setting": "[31]", "result": "2.96 µM (active)"},
      {"measurement": "AC50", "setting": "[32]", "result": "3.56 µM (active)"},
      {"measurement": "AC50", "setting": "[33]", "result": "3.36 µM (active)"}
    ]}
  ]
}
